From patent publication US20210137117A1, “HERBICIDAL MIXTURES” (Bayer Aktiengesellschaft, priority 2017, published 2021)
Several values for one entry are separate records, joined by “and”; a condition that tells them apart may be missing. Equal entries are not always repeated.

Assays:
Test in all cases: Pre-emergence action against weeds (greenhouse)
Type in all cases: in vivo
CENCY (Centaurea cyanus) = test system: CENCY (Centaurea cyanus)
From the text: (§1) Depending on the trial conditions, the soil of the standard field soil is sterile or not sterile.
(§2) The amount of water used for spray application was 300l/ha.
CENCY (Centaurea cyanus)—Cornflower
(§3) Insofar as herbicidal effects of the compositions according to the invention compared to mixtures of the prior art or compared to components applied individually against economically important mono- and dicotyledonous harmful plants were the centre of attention, the synergistic herbicidal activities were calculated using Colby's formula (cf. S. R. Colby; Weeds 15 (1967), 20-22): […]

EMEAU (Emex australis) = test system: EMEAU (Emex australis)
From the text: as §1, §2
EMEAU (Emex australis)—Cathead
as §3

[1] = test system: LOLRI—sensitive (Lolium rigidum)
From the text: as §1, §2
LOLRI—sensitive (Lolium rigidum) sensitive to customary herbicidally active compounds.
as §3

BROST (Bromus sterilis) = test system: BROST (Bromus sterilis)
From the text: as §1, §2
BROST (Bromus sterilis)—Bromegrass, barren
as §3

HORVS (Hordeum vulgare) = test system: HORVS (Hordeum vulgare)
From the text: as §1, §2
HORVS (Hordeum vulgare)—Barley, spring
as §3

[2] = test system: VERHE (Veronica hederaefolia)
From the text: as §1, §2
VERHE (Veronica hederaefolia)—Speedwell, iveleaf
as §3

AVEFA (Avenafatua) = test system: AVEFA (Avenafatua)
From the text: as §1, §2
AVEFA (Avenafatua)—Wild oat
as §3

[3] = test system: RAPRA (Raphanus raphanistrum)
From the text: as §1, §2
RAPRA (Raphanus raphanistrum)—Charlock, jointed
as §3

[4] = test system: ALOMY—sensitive (Alopecurus myosuroides)
From the text: as §1, §2
ALOMY—sensitive (Alopecurus myosuroides) sensitive to customary herbicidally active compounds.
as §3

PAPRH (Papaver rhoeas) = test system: PAPRH (Papaver rhoeas)
From the text: as §1, §2
PAPRH (Papaver rhoeas)—Poppy, common
as §3

[5] = test system: LOLRI—resistant (Lolium rigidum)
From the text: as §1, §2
LOLRI—resistant (Lolium rigidum) resistant to herbicidally active compounds of the HRAC groups A and B; population mixture of field origin having increased metabolic resistance (IMR) and some target site resistance (TSR).
as §3

[6] = test system: SORHA (Sorghum halepense)
From the text: as §1, §2
SORHA (Sorghum halepense)—Johnsongrass
as §3

[7] = test system: ALOMY—resistant (Alopecurus myosuroides)
From the text: as §1, §2
ALOMY—resistant (Alopecurus myosuroides) resistant to herbicidally active compounds of the HRAC groups A and B; population mixture of field origin having increased metabolic resistance (IMR) and some target site resistance (TSR).
as §3

BRSNW (Brassica napus) = test system: BRSNW (Brassica napus)
From the text: as §1, §2
BRSNW (Brassica napus)—Rape, winter
as §3

[8] = test system: TRZAS (Triticum aestivum)
From the text: as §1, §2
TRZAS (Triticum aestivum)—Wheat, spring
as §3

[9] = pre-emergence, dose 100 g AS/ha

SMILES: CC1(C)CON(Cc2ccc(Cl)cc2Cl)C1=O [2-[(2,4-dichlorophenyl)methyl]-4,4-dimethyl-3-isoxazolidinone]
- herbicidal action (CENCY (Centaurea cyanus); 10 g AS/ha): 0%
- herbicidal action (CENCY (Centaurea cyanus); 25 g AS/ha): 0%
- herbicidal action (CENCY (Centaurea cyanus); 50 g AS/ha): 10%
- herbicidal action (CENCY (Centaurea cyanus); 100 g AS/ha): 70%
- herbicidal action (CENCY (Centaurea cyanus); 200 g AS/ha): 88%
- Herbicidal action CENCY (CENCY (Centaurea cyanus); [9]): 70
- herbicidal action (EMEAU (Emex australis); 10 g AS/ha): 0%
- herbicidal action (EMEAU (Emex australis); 25 g AS/ha): 0%
- herbicidal action (EMEAU (Emex australis); 50 g AS/ha): 10%
- herbicidal action (EMEAU (Emex australis); 200 g AS/ha): 40%
- herbicidal action (EMEAU (Emex australis); 250 g AS/ha): 60%
- herbicidal action (EMEAU (Emex australis); 400 g AS/ha): 70%
- herbicidal action (EMEAU (Emex australis); 500 g AS/ha): 70%
- Herbicidal action EMEAU (EMEAU (Emex australis); [9]): 20
- herbicidal action ([1]; 10 g AS/ha): 0%
- herbicidal action ([1]; 25 g AS/ha): 30%
- herbicidal action ([1]; 50 g AS/ha): 70%
- herbicidal action ([1]; 100 g AS/ha): 70%
- herbicidal action ([1]; 200 g AS/ha): 90%
- herbicidal action ([1]; 250 g AS/ha): 95%
- herbicidal action ([1]; 400 g AS/ha): 95%
- herbicidal action ([1]; 500 g AS/ha): 95%
- Herbicidal action LOLRI sensitive [1, 9]: 70
- herbicidal action (BROST (Bromus sterilis); 10 g AS/ha): 0%
- herbicidal action (BROST (Bromus sterilis); 25 g AS/ha): 0%
- herbicidal action (BROST (Bromus sterilis); 50 g AS/ha): 0%
- herbicidal action (BROST (Bromus sterilis); 100 g AS/ha): 20%
- herbicidal action (BROST (Bromus sterilis); 200 g AS/ha): 30%
- herbicidal action (BROST (Bromus sterilis); 250 g AS/ha): 65%
- herbicidal action (BROST (Bromus sterilis); 400 g AS/ha): 70%
- herbicidal action (BROST (Bromus sterilis); 500 g AS/ha): 75%
- Herbicidal action BROST (BROST (Bromus sterilis); [9]): 20
- herbicidal action (HORVS (Hordeum vulgare); 10 g AS/ha): 0%
- herbicidal action (HORVS (Hordeum vulgare); 25 g AS/ha): 2%
- herbicidal action (HORVS (Hordeum vulgare); 50 g AS/ha): 5%
- herbicidal action (HORVS (Hordeum vulgare); 100 g AS/ha): 15%
- herbicidal action (HORVS (Hordeum vulgare); 200 g AS/ha): 40%
- herbicidal action (HORVS (Hordeum vulgare); 250 g AS/ha): 50%
- herbicidal action (HORVS (Hordeum vulgare); 400 g AS/ha): 60%
- herbicidal action (HORVS (Hordeum vulgare); 500 g AS/ha): 60%
- Herbicidal action (crop damage) HORVS (HORVS (Hordeum vulgare); [9]): 15
- herbicidal action ([2]; 10 g AS/ha): 15%
- herbicidal action ([2]; 25 g AS/ha): 40%
- herbicidal action ([2]; 50 g AS/ha): 70%
- herbicidal action ([2]; 100 g AS/ha): 80%
- herbicidal action ([2]; 200 g AS/ha): 90%
- herbicidal action ([2]; 250 g AS/ha): 95%
- herbicidal action ([2]; 400 g AS/ha): 95%
- herbicidal action ([2]; 500 g AS/ha): 95%
- Herbicidal action VERHE [2, 9]: 80
- herbicidal action (AVEFA (Avenafatua); 10 g AS/ha): 0%
- herbicidal action (AVEFA (Avenafatua); 25 g AS/ha): 5%
- herbicidal action (AVEFA (Avenafatua); 50 g AS/ha): 15%
- herbicidal action (AVEFA (Avenafatua); 100 g AS/ha): 50%
- herbicidal action (AVEFA (Avenafatua); 200 g AS/ha): 70%
- herbicidal action (AVEFA (Avenafatua); 250 g AS/ha): 75%
- herbicidal action (AVEFA (Avenafatua); 400 g AS/ha): 75%
- herbicidal action (AVEFA (Avenafatua); 500 g AS/ha): 80%
- Herbicidal action AVEFA (AVEFA (Avenafatua); [9]): 50
- herbicidal action ([3]; 10 g AS/ha): 0%
- herbicidal action ([3]; 25 g AS/ha): 5%
- herbicidal action ([3]; 50 g AS/ha): 20%
- herbicidal action ([3]; 100 g AS/ha): 40%
- herbicidal action ([3]; 200 g AS/ha): 50%
- herbicidal action ([3]; 250 g AS/ha): 60%
- herbicidal action ([3]; 400 g AS/ha): 80%
- herbicidal action ([3]; 500 g AS/ha): 90%
- Herbicidal action RAPRA [3, 9]: 40
- herbicidal action ([4]; 10 g AS/ha): 0%
- herbicidal action ([4]; 25 g AS/ha): 0%
- herbicidal action ([4]; 50 g AS/ha): 20%
- herbicidal action ([4]; 100 g AS/ha): 60%
- herbicidal action ([4]; 200 g AS/ha): 95%
- herbicidal action ([4]; 250 g AS/ha): 93%
- herbicidal action ([4]; 400 g AS/ha): 95%
- herbicidal action ([4]; 500 g AS/ha): 95%
- Herbicidal action ALOMY sensitive [4, 9]: 60
- herbicidal action (PAPRH (Papaver rhoeas); 250 g AS/ha): 95%
- herbicidal action (PAPRH (Papaver rhoeas); 400 g AS/ha): 95%
- herbicidal action (PAPRH (Papaver rhoeas); 500 g AS/ha): 95%
- herbicidal action ([5]; 10 g AS/ha): 0%
- herbicidal action ([5]; 25 g AS/ha): 5%
- herbicidal action ([5]; 50 g AS/ha): 60% and 30%
- herbicidal action ([5]; 100 g AS/ha): 70% and 75%
- herbicidal action ([5]; 200 g AS/ha): 80%
- herbicidal action ([5]; 250 g AS/ha): 80%
- herbicidal action ([5]; 400 g AS/ha): 94%
- herbicidal action ([5]; 500 g AS/ha): 94%
- Herbicidal action LOLRI resistant [5, 9]: 75
- herbicidal action ([6]; 10 g AS/ha): 0%
- herbicidal action ([6]; 25 g AS/ha): 0%
- herbicidal action ([6]; 50 g AS/ha): 30%
- herbicidal action ([6]; 100 g AS/ha): 40%
- herbicidal action ([6]; 200 g AS/ha): 60%
- Herbicidal action SORHA [6, 9]: 40
- herbicidal action ([7]; 10 g AS/ha): 0%
- herbicidal action ([7]; 25 g AS/ha): 0%
- herbicidal action ([7]; 50 g AS/ha): 10% and 20%
- herbicidal action ([7]; 100 g AS/ha): 60%
- herbicidal action ([7]; 200 g AS/ha): 80%
- herbicidal action ([7]; 250 g AS/ha): 93%
- herbicidal action ([7]; 400 g AS/ha): 95%
- herbicidal action ([7]; 500 g AS/ha): 95%
- Herbicidal action ALOMY resistant [7, 9]: 60
- herbicidal action (BRSNW (Brassica napus); 10 g AS/ha): 0%
- herbicidal action (BRSNW (Brassica napus); 25 g AS/ha): 0%
- herbicidal action (BRSNW (Brassica napus); 50 g AS/ha): 0%
- herbicidal action (BRSNW (Brassica napus); 100 g AS/ha): 0%
- herbicidal action (BRSNW (Brassica napus); 200 g AS/ha): 5%
- herbicidal action (BRSNW (Brassica napus); 250 g AS/ha): 20%
- herbicidal action (BRSNW (Brassica napus); 400 g AS/ha): 20%
- herbicidal action (BRSNW (Brassica napus); 500 g AS/ha): 20%
- Herbicidal action BRSNW (BRSNW (Brassica napus); [9]): 0
- herbicidal action ([8]; 10 g AS/ha): 0%
- herbicidal action ([8]; 25 g AS/ha): 0%
- herbicidal action ([8]; 50 g AS/ha): 0%
- herbicidal action ([8]; 100 g AS/ha): 5%
- herbicidal action ([8]; 200 g AS/ha): 40%
- herbicidal action ([8]; 250 g AS/ha): 50%
- herbicidal action ([8]; 400 g AS/ha): 60%
- herbicidal action ([8]; 500 g AS/ha): 70%
- Herbicidal action (crop damage) TRZAS [8, 9]: 5
